For one test, the target named is T1, mouse brain FAAH (Mus musculus, UniProt O08914).
T1 construct: Brains from male B6CBAF1/J mice, stored at -80°C, were thawed, weighed and homogenized in cold buffer; from tissue; host or cells: brain of male B6CBAF1/J mice (washed membrane pellet homogenate)
T1 sequence (O08914 1-579): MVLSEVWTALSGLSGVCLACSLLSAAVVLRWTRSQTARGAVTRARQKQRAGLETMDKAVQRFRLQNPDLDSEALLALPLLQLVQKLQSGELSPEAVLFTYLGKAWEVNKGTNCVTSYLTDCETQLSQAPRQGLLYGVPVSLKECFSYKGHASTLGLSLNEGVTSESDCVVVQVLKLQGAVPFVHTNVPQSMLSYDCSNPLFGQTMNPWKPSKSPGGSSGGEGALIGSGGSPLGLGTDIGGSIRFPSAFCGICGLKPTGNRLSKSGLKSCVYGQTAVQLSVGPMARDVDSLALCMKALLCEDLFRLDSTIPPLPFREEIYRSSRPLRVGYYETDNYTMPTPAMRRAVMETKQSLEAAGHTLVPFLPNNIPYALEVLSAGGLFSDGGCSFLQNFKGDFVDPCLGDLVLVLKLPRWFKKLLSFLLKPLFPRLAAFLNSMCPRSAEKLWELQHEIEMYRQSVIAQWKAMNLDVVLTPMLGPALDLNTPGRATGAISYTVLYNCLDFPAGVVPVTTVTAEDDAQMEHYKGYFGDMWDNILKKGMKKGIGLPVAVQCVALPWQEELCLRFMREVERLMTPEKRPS
Briefly: FAAH assay, [3H]AEA hydrolysis in mouse brain homogenates. The format is biochemical. The following applies: 0.5 μM [3H]AEA; read-out: IC50 inhibition of [3H]AEA hydrolysis in mouse brain homogenates. The protocol: Brains from male B6CBAF1/J mice, stored at -80°C, were thawed, weighed and homogenized in cold buffer (20 mM HEPES, 1 mM MgCl2 pH 7.0). Homogenates were centrifuged (35,000 g at 4°C for 20 min) before the pellet was resuspended in cold homogenization buffer. Centrifugation and resuspension was repeated twice. The suspension was incubated at 37°C for 15 min to degrade any endogenous substrate able to interfere with the FAAH assay. After centrifugation (35,000 g at 4°C for 20 min), the pellet was resuspended in cold buffer (50 mM Tris-HCl, 1mM EDTA, 3 mM MgCl2, pH 7.4). The protein concentration was determined according to the Bradford assay after which the samples were frozen in aliquots at -80°C. Ethical permission for the animal experiments was obtained from the local animal research ethical committee (Umeå Ethical Committee for Animal Research, Umeå, Sweden). FAAH was assayed using the method of Boldrup et al., whereby homogenates (0.3 μg protein / assay) in assay buffer (10 mM Tris-HCl, 1mM EDTA, pH 7.4), test compounds and substrate ([^3H]AEA in 10 mM Tris-HCl, 1mM EDTA, pH 7.4 containing 10 mg/ml fatty acid-free bovine serum, assay concentration 0.5 μM unless otherwise stated) were incubated for 10 min at 37°C. Thereafter, 400 μL activated charcoal (80 μL activated charcoal + 320 μL 0.5 M HCl) was added and the samples were placed on ice and centrifuged at 2500 rpm for 10 min. Aliquots (200 μL) of the supernatant was analyzed for tritium content by liquid scintillation spectroscopy with quench correction.

Test [1] deals with T2, rat brain FAAH (Rattus norvegicus, UniProt P97612).
T2 construct: the racemate was studied in rat brain homogenates, whereas mouse brain homogenates were used here; from tissue; host or cells: rat brain homogenates
T2 sequence (P97612 1-579): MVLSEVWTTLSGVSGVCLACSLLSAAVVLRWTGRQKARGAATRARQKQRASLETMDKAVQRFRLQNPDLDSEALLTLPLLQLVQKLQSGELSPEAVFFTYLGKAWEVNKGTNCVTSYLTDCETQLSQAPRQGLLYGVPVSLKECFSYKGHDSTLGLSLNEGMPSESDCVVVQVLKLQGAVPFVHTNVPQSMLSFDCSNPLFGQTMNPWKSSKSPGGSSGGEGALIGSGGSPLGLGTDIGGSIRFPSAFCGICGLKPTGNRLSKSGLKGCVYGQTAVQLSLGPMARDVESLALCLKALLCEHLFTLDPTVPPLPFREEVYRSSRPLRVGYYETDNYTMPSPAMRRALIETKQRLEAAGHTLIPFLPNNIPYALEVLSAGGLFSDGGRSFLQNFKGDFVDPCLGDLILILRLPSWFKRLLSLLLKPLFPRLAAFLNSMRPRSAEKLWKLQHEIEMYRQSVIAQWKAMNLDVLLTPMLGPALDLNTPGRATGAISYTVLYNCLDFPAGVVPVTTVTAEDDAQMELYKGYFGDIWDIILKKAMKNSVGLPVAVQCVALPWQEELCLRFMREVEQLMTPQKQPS
Kind of test: [3H]AEA hydrolysis in rat brain homogenates. In kind it is biochemical. Particulars: current authors, unpublished data; read-out: IC50 inhibition of [3H]AEA hydrolysis in rat brain homogenates.

The target in another test is T3, ovine COX-1 (Ovis aries, UniProt P05979).
T3 construct: purchased Cayman Chemical Co. 60100
T3 sequence (P05979 25-600): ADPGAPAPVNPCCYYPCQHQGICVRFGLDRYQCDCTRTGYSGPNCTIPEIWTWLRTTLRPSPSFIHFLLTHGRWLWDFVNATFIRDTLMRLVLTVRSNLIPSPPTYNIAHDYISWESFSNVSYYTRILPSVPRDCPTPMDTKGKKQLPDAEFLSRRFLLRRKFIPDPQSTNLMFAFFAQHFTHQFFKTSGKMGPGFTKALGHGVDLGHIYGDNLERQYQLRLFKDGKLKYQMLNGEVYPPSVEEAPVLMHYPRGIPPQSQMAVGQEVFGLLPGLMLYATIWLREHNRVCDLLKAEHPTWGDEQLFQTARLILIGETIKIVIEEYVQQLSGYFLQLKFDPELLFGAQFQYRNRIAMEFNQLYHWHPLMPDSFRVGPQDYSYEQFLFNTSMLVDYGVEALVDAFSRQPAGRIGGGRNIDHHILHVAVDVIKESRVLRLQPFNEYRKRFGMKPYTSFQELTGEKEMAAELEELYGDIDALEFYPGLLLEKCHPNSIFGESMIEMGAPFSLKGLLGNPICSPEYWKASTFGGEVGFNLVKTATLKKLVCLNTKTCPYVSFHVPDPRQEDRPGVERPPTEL
Briefly: COX-1 inhibition, oxygraphic method (oxygen electrode). In kind it is biochemical. Particulars: 10 μM arachidonic acid; no preincubation phase; approximate, from initial velocities. The procedure: (§1) The assay was performed according to Meade et al. with minor modifications. An oxygen electrode chamber with integral stirring (Oxygraph System, Hansatech Instruments, King´s Lynn, U.K.) was calibrated daily to ambient temperature and air pressure. The assay buffer contained 0.1 M Tris-HCl buffer pH 7.4, 1 μM haematin, 2 mM phenol, 5 mM EDTA, 10 μM substrate (arachidonic acid or 2-AG) (final assay volume was 2 ml). After addition of (R)- or (S)-Flu-AM1 dissolved in ethanol (final assay concentration 1%), a baseline was established for 5 min before initiation of reaction by addition of 200 units ovine COX-1 or human recombinant COX-2. The change in oxygen consumption as a measurement of enzyme activity was monitored for approximately 5 min.

The target of another test is T4, human recombinant COX-2 (Homo sapiens, UniProt P35354).
T4 construct: purchased Cayman Chemical Co. 60122
T4 sequence (P35354 18-604): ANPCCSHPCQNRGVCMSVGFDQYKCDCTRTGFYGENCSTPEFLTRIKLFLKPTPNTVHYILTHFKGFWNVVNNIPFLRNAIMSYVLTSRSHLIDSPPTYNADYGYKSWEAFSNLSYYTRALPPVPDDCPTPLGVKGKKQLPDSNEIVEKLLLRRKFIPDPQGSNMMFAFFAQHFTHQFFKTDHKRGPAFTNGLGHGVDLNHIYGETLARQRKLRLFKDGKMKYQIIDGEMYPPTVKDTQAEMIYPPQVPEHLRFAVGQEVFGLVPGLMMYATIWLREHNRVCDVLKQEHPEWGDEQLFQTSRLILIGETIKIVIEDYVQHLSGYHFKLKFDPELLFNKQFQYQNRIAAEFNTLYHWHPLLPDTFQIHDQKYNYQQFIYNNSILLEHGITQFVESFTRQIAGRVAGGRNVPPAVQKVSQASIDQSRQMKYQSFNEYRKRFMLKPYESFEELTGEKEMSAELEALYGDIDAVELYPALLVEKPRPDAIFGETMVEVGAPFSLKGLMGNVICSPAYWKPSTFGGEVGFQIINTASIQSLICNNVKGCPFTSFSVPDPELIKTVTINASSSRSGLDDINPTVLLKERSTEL
Briefly: COX-2 inhibition, oxygraphic method (oxygen electrode). In kind it is biochemical. Particulars: no preincubation phase, approximate, from initial velocities. The protocol: as §1

In test [2] the target is T2, rat brain FAAH. The following applies: racemate; read-out: IC50 FAAH, rat brain homogenates; cited from earlier work.

The text below walks through data of PMC4583449, “Characterisation of (R)-2-(2-Fluorobiphenyl-4-yl)-N-(3-Methylpyridin-2-yl)Propanamide as a Dual Fatty Acid Amide Hydrolase: Cyclooxygenase Inhibitor” (PLoS ONE, 2015).

Where “and” joins values, the source holds several entries; their conditions need not be identical. Equal entries are not always repeated. Where two headings read alike, the source gives them in different places.

As to `Cc1cccnc1NC(=O)[C@@H](C)c1ccc(-c2ccccc2)c(F)c1` [(S)-Flu-AM1], the IC50 (usually the midpoint of a concentration-inhibition curve) was 11 µM at mouse brain FAAH; 0.99 µM at rat brain FAAH [1]; 3 µM and ~3 µM on ovine COX-1; 0.7 µM and ~0.7 µM on human recombinant COX-2 (10 μM 2-AG, read-out: IC50 COX-2 (2-AG)); 10 µM and ~10 µM at human recombinant COX-2 (10 μM arachidonic acid, read-out: IC50 COX-2 (arachidonic acid)).

As to `Cc1cccnc1NC(=O)C(C)c1ccc(-c2ccccc2)c(F)c1` (stereo not drawn) [Flu-AM1, 2-(2-fluorobiphenyl-4-yl)-N-(3-methylpyridin-2-yl)propanamide], the IC50 on rat brain FAAH [2] was 0.44 µM.
